Laboratory results taken from the supplement of paper PMC11061612.

Columns and labels:
Test in all cases: Bliss excess, mean over the matrix (fraction); higher = more synergy
[1] = tested on: KURAMOCHI (Ovarian Carcinoma)
In short: (§1)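 Cell lines grown in DMEM/F12 or RPMI with 10% FBS were plated in 1536-well plates and held 24 hours at 37°C, 5% CO2 before 72 hours of exposure to two-drug dose matrices, with DMSO typically at 0.2%. CellTiter-Glo 2.0 luminescence gave viability, which was converted to inhibition. Vehicle wells were set to 0 and blank wells to 1. Combination Emax is the second-highest inhibition in the matrix, and Bliss excess is the observed combination effect minus the expected EA + EB − EA·EB, where EA and EB are the single-agent effects.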

AGS (Gastric Carcinoma) = tested on: AGS (Gastric Carcinoma)
In short: as §1

42-MG-BA (Glioblastoma) = tested on: 42-MG-BA (Glioblastoma)
In short: as §1

[2] = tested on: TCCSUP (Bladder Carcinoma)
In short: as §1

[3] = tested on: HuP-T4 (Pancreatic Carcinoma)
In short: as §1

[4] = tested on: HO-1-N-1 (Oral Cavity Carcinoma)
In short: as §1

NOS-1 (Osteosarcoma) = tested on: NOS-1 (Osteosarcoma)
In short: as §1

[5] = tested on: NCI-H2085 (Non-Small Cell Lung Carcinoma)
In short: as §1

[6] = tested on: TE-9 (Esophageal Squamous Cell Carcinoma)
In short: as §1

[7] = tested on: DoTc2-4510 (Cervical Carcinoma)
In short: as §1

[8] = tested on: UM-UC-3 (Bladder Carcinoma)
In short: as §1

[9] = tested on: Daoy (Other Solid Carcinomas)
In short: as §1

[10] = tested on: CaR-1 (Colorectal Carcinoma)
In short: as §1

[11] = tested on: Calu-3 (Lung Adenocarcinoma)
In short: as §1

[12] = tested on: DEL (T-Cell Non-Hodgkin's Lymphoma)
In short: as §1

[13] = tested on: TE-15 (Esophageal Squamous Cell Carcinoma)
In short: as §1

NB10 (Neuroblastoma) = tested on: NB10 (Neuroblastoma)
In short: as §1

[14] = tested on: COLO-205 (Colorectal Carcinoma)
In short: as §1

[15] = tested on: HT-1376 (Bladder Carcinoma)
In short: as §1

[16] = tested on: MDA-MB-361 (Breast Carcinoma)
In short: as §1

| Compound | Bliss excess [1] | Bliss excess (AGS (Gastric Carcinoma)) | Bliss excess (42-MG-BA (Glioblastoma)) | Bliss excess [2] | Bliss excess [3] | Bliss excess [4] | Bliss excess (NOS-1 (Osteosarcoma)) | Bliss excess [5] | Bliss excess [6] | Bliss excess [7] | Bliss excess [8] | Bliss excess [9] | Bliss excess [10] | Bliss excess [11] | Bliss excess [12] | Bliss excess [13] | Bliss excess (NB10 (Neuroblastoma)) | Bliss excess [14] | Bliss excess [15] | Bliss excess [16] |
| --- | --- | --- | --- | --- | --- | --- | --- | --- | --- | --- | --- | --- | --- | --- | --- | --- | --- | --- | --- | --- |
| COc1nnc2ccc(N3CCC(c4ccc(OCCN5CCN(C)C(=O)[C@H]5C)cc4)CC3)nn12 [AZD5153] + Cc1c2c(nn1C)CSCc1cc(n(C)n1)CSc1cc(c3ccccc3c1)OCCCc1c(C(=O)O)n(C)c3c-2c(Cl)ccc13 [AZD5991] (first compound max 1 µM, 7x7, partner max 1 µM) | 0.0332 | -0.0166 | 0.0576 | -0.0234 | -0.0461 | 0.0068 | 0.0399 | -0.0081 | -0.007 | -0.0358 | 0.0031 | -0.0133 | -0.0548 | -0.0288 | -0.0475 | -0.0124 | -0.0446 | -0.0303 | -0.0135 | -0.0406 |
| COc1nnc2ccc(N3CCC(c4ccc(OCCN5CCN(C)C(=O)[C@H]5C)cc4)CC3)nn12 [AZD5153] + Cn1cnc2c(F)c(Nc3ccc(Br)cc3Cl)c(C(=O)NOCCO)cc21 [Selumetinib] (first compound max 1 µM, 7x7, partner max 10 µM) | -0.0242 | 0.0163 | -0.0245 | -0.0264 | 0.0621 | 0.0226 | 0.066 | 0.027 | -0.0161 | -0.0002 | 0.113 | -0.0253 | 0.0208 | 0.0229 | -0.0896 | 0.0225 | -0.0687 | 0.0422 | 0.0081 | 0.0073 |
| Cc1c2c(nn1C)CSCc1cc(n(C)n1)CSc1cc(c3ccccc3c1)OCCCc1c(C(=O)O)n(C)c3c-2c(Cl)ccc13 [AZD5991] + C1CN(CCC1(C(=O)N[C@@H](CCO)C2=CC=C(C=C2)Cl)N)C3=NC=NC4=C3C=CN4 [Capivasertib] (first compound max 1 µM, 7x7, partner max 3 µM) | 0.0205 | 0.0013 | -0.0442 | 0.0229 | 0.0085 | 0.0001 | 0.0511 | -0.0334 | 0.0095 | 0.0544 | -0.0231 | 0.0248 | -0.0295 | 0.0134 | -0.012 | -0.0196 | -0.0316 | -0.023 | -0.01 | 0.0211 |
| Cc1c2c(nn1C)CSCc1cc(n(C)n1)CSc1cc(c3ccccc3c1)OCCCc1c(C(=O)O)n(C)c3c-2c(Cl)ccc13 [AZD5991] + CC1(C)CCC(CN2CCN(c3ccc(C(=O)NS(=O)(=O)c4ccc(NCC5CCOCC5)c([N+](=O)[O-])c4)c(Oc4cnc5[nH]ccc5c4)c3)CC2)=C(c2ccc(Cl)cc2)C1 [Venetoclax] (first compound max 1 µM, 7x7, partner max 1 µM) | 0.0511 | 0.0132 | -0.025 | -0.0662 | -0.0106 | 0.0055 | 0.0241 | -0.0042 | 0.0041 | 0.0024 | -0.0062 | 0.0496 | -0.0225 | 0.0015 | 0.0081 | -0.05 | 0.0065 | -0.0335 | -0.0465 | 0.0194 |
| Cc1c2c(nn1C)CSCc1cc(n(C)n1)CSc1cc(c3ccccc3c1)OCCCc1c(C(=O)O)n(C)c3c-2c(Cl)ccc13 [AZD5991] + CCN(CCO)CCCOc1ccc2c(Nc3cc(CC(=O)Nc4cccc(F)c4)[nH]n3)ncnc2c1 [AZD2811] (first compound max 1 µM, 7x7, partner max 1 µM) | -0.0046 | 0.0374 | 0.0282 | -0.0288 | -0.0024 | 0.0237 | -0.0222 | -0.0575 | -0.0235 | 0.0509 | 0.0296 | 0.0678 | -0.0004 | -0.0024 | -0.0295 | 0.0649 | 0.0335 | 0.0153 | -0.0077 | 0.0399 |
| Cc1c2c(nn1C)CSCc1cc(n(C)n1)CSc1cc(c3ccccc3c1)OCCCc1c(C(=O)O)n(C)c3c-2c(Cl)ccc13 [AZD5991] + CN(C)CCCOc1ccc(-c2ccc3ncc4c(c3c2)n(C2CCOCC2)c(=O)n4C)cn1 [AZD0156] (first compound max 1 µM, 7x7, partner max 1 µM) | -0.0666 | -0.0258 | 0.0259 | -0.0332 | 0.0351 | -0.0044 | -0.0581 | -0.0266 | -0.0529 | 0.0422 | -0.0084 | 0.0145 | -0.0271 | 0.0066 | -0.0174 | 0.0128 | 0.0269 | 0.0261 | 0.0039 | -0.016 |
| Cc1c2c(nn1C)CSCc1cc(n(C)n1)CSc1cc(c3ccccc3c1)OCCCc1c(C(=O)O)n(C)c3c-2c(Cl)ccc13 [AZD5991] + C[C@@H]1COCCN1C2=NC(=NC(=C2)C3(CC3)[S@](=N)(=O)C)C4=C5C=CNC5=NC=C4 [AZD6738] (first compound max 1 µM, 7x7, partner max 10 µM) | 0.0587 | 0.0629 | 0.041 | 0.0241 | 0.0361 | -0.0134 | 0.0854 | 0.0312 | -0.0039 | -0.0327 | 0.0159 | 0.0268 | -0.0134 | 0.0119 | 0.004 | -0.0441 | 0.0339 | 0.0116 | 0.0144 | 0.0182 |
| Cc1c2c(nn1C)CSCc1cc(n(C)n1)CSc1cc(c3ccccc3c1)OCCCc1c(C(=O)O)n(C)c3c-2c(Cl)ccc13 [AZD5991] + C[C@@H](Nc1cc(F)cc(F)c1)c1cc(C(=O)N(C)C)cc2c(=O)cc(N3CCOCC3)oc12 [AZD8186] (first compound max 1 µM, 7x7, partner max 3 µM) | 0.039 | 0.0073 | -0.0084 | 0.0237 | 0.0505 | 0.0943 | 0.023 | -0.043 | -0.0274 | 0.0486 | 0.0098 | 0.0289 | -0.0187 | 0.0441 | 0.0058 | -0.0254 | -0.0444 | -0.0444 | -0.0304 | -0.0102 |
| Cc1c2c(nn1C)CSCc1cc(n(C)n1)CSc1cc(c3ccccc3c1)OCCCc1c(C(=O)O)n(C)c3c-2c(Cl)ccc13 [AZD5991] + Cn1cnc2c(F)c(Nc3ccc(Br)cc3Cl)c(C(=O)NOCCO)cc21 [Selumetinib] (first compound max 1 µM, 7x7, partner max 3 µM) | 0.031 | 0.186 | -0.03 | -0.0066 | 0.113 | 0.0303 | 0.0887 | -0.0344 | -0.0097 | 0.0343 | 0.0332 | 0.02 | -0.03 | -0.015 | 0.0049 | 0.0114 | 0.0122 | 0.0145 | 0.0144 | -0.0168 |
| C[C@@H]1COCCN1c1cc(C2([S@](C)(=N)=O)CC2)nc(-c2ccnc3[nH]ccc23)n1 [AZD6738] + O=C(c1cc(Cc2n[nH]c(=O)c3ccccc23)ccc1F)N1CCN(C(=O)C2CC2)CC1 [Olaparib] (first compound max 10 µM, 7x7, partner max 10 µM) | -0.0208 | -0.0108 | 0.0142 | 0.067 | -0.0037 | -0.0196 | 0.0554 | -0.0571 | 0.0403 | 0.0652 | 0.0829 | 0.0116 | -0.0391 | 0.0139 | 0.0399 | -0.0465 | 0.0017 | 0.0205 | -0.0687 | -0.0376 |
| Cc1cc2ncnn2cc1Nc1ncc2c(n1)n(C1CCOCC1)c(=O)n2C [AZD7648] + C=CCn1c(=O)c2cnc(Nc3ccc(N4CCN(C)CC4)cc3)nc2n1-c1cccc(C(C)(C)O)n1 [AZD1775] (first compound max 10 µM, partner max 1 µM) | -0.0501 | -0.0152 | -0.052 | -0.0109 | 0.0417 | 0.0444 | -0.0145 | 0.0418 | 0.0148 | -0.0004 | 0.0279 | 0.0018 | 0.0022 | -0.0073 | 0.023 | 0.0223 | -0.0812 | -0.026 | 0.0121 | -0.0854 |
| Cc1cc2ncnn2cc1Nc1ncc2c(n1)n(C1CCOCC1)c(=O)n2C [AZD7648] + CCN(CCO)CCCOc1ccc2c(Nc3cc(CC(=O)Nc4cccc(F)c4)[nH]n3)ncnc2c1 [AZD2811] (first compound max 10 µM, 7x7, partner max 1 µM) | 0.0084 | 0.0641 | 0.0312 | 0.0258 | 0.0254 | 0.0478 | -0.0036 | 0.0409 | -0.0002 | -0.0115 | 0.001 | 0.0083 | -0.0102 | 0.002 | 0.0547 | -0.0213 | 0.0524 | -0.0303 | -0.0382 | -0.0082 |
| Cc1cc2ncnn2cc1Nc1ncc2c(n1)n(C1CCOCC1)c(=O)n2C [AZD7648] + CN(C)CCCOc1ccc(-c2ccc3ncc4c(c3c2)n(C2CCOCC2)c(=O)n4C)cn1 [AZD0156] (first compound max 10 µM, 7x7, partner max 1 µM) | -0.064 | 0.0178 | -0.0313 | -0.011 | 0.0393 | 0.0046 | 0.0258 | -0.0343 | 0.009 | 0.0054 | 0.014 | 0.0614 | 0.0399 | -0.0252 | 0.0956 | -0.0383 | -0.0024 | 0.0271 | 0.0037 | -0.0656 |
| Cc1cc2ncnn2cc1Nc1ncc2c(n1)n(C1CCOCC1)c(=O)n2C [AZD7648] + C[C@@H]1COCCN1C2=NC(=NC(=C2)C3(CC3)[S@](=N)(=O)C)C4=C5C=CNC5=NC=C4 [AZD6738] (first compound max 10 µM, 7x7, partner max 10 µM) | -0.0229 | 0.0015 | -0.0581 | 0.0311 | 0.0353 | 0.0001 | 0.0761 | 0.0007 | 0.0252 | 0.0178 | 0.0223 | 0.0328 | 0.0287 | 0.0012 | 0.0052 | -0.0193 | -0.0306 | 0.0195 | 0.0176 | -0.0263 |
| Cc1cc2ncnn2cc1Nc1ncc2c(n1)n(C1CCOCC1)c(=O)n2C [AZD7648] + O=C(c1cc(Cc2n[nH]c(=O)c3ccccc23)ccc1F)N1CCN(C(=O)C2CC2)CC1 [Olaparib] (first compound max 10 µM, 7x7, partner max 10 µM) | -0.0418 | -0.007 | 0.0303 | -0.0465 | -0.0432 | 0.0099 | -0.0278 | -0.0444 | -0.0264 | -0.0428 | -0.0297 | -0.0102 | -0.0399 | -0.0351 | 0.0174 | -0.0399 | -0.0102 | -0.0345 | -0.0549 | -0.0204 |
